Values of other authors as cited in patent US20050220753A1, “Hydrophilic polymers-flavoids conjugates and pharmaceutical compositions comprising them” (BEIJING JIANKAI TECHNOLOGY CO., LTD, priority 2002, published 2005).
Read-outs that look alike come from different tables or passages of the source.

Assays:
[1] = human, intravenously infused
[2] = rats, intravenous injection

SMILES | elimination half-life [1] [min] | absorption half-life [2] [min] | elimination half-life [2] [min]
O=c1c(-c2ccc(O)cc2)coc2c([C@@H]3O[C@H](CO)[C@@H](O)[C@H](O)[C@H]3O)c(O)ccc12 [Puerarin] | 74 | – | –
O=c1cc(-c2ccccc2)oc2cc(O)c(O)c(O)c12 [Baicalein] | – | 13 | 42
